Patent publication US20100076015A1, “Aminopyridine Derivatives” (VANTIA LIMITED, priority 2008, published 2010)
pIC50: −log10 of the molar value.

Biological target: T1, Human KLK1 (Homo sapiens, UniProt P06870)
T1 construct: purchased Callbiochem (Calbiochem)
Test: Determination of the IC50 for KLK1 (fluorogenic substrate H-DVal-Leu-Arg-AFC)
Format: biochemical
Conditions: 37° C.
Method in brief: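 Test compound at various concentrations was incubated with human KLK1 and the fluorogenic substrate H-DVal-Leu-Arg-AFC at 37° C. Absorbance change at 410 nm gave the initial reaction rate, from which IC50 was obtained.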

T1 sequence (P06870 25-262): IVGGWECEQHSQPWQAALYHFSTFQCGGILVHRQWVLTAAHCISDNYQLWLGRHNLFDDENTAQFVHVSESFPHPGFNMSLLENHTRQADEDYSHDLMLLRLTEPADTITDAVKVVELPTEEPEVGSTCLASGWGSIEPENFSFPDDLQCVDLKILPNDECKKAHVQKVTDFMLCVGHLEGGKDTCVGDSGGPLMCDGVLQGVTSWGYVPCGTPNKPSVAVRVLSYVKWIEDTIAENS

Compound | pIC50
CC(C)N(C)[C@@H](C)C(=O)N[C@@H](Cc1ccc(Cl)c(Cl)c1)C(=O)NCc1ccc(N)nc1 [Example 401, (S)—N-[(S)-1-[(6-Amino-pyridin-3-ylmethyl)-carbamoyl]-2-(3,4-dichloro-phenyl)-ethyl]-2-(isopropyl-methyl-amino)-propionamide] | 9.80
C[C@H](C(=O)N[C@@H](Cc1ccc(Cl)c(Cl)c1)C(=O)NCc1ccc(N)nc1)N1CCCCC1 [Example 402, (R)—N-[(S)-1-[(6-Amino-pyridin-3-ylmethyl)-carbamoyl]-2-(3,4-dichloro-phenyl)-ethyl]-2-piperidin-1-yl-propionamide] | 7.89
C[C@@H](C(=O)N[C@@H](Cc1ccc(Cl)c(Cl)c1)C(=O)NCc1ccc(N)nc1)N1CCCCC1 [Example 403, (S)—N-[(S)-1-[(6-Amino-pyridin-3-ylmethyl)-carbamoyl]-2-(3,4-dichloro-phenyl)-ethyl]-2-piperidin-1-yl-propionamide] | 8.96
Nc1ccc(CNC(=O)[C@H](Cc2ccc(Cl)c(Cl)c2)NC(=O)CN2CCCCC2)cn1 [Example 404, (S)—N-(6-Amino-pyridin-3-ylmethyl)-3-(3,4-dichloro-phenyl)-2-(2-piperidin-1-yl-acetylamino)-propionamide] | 7.48
CCC(C)[C@H](C(=O)N[C@@H](Cc1cccc(Cl)c1)C(=O)NCc1ccc(N)nc1)N(C)C (stereo partly drawn) [Example 405, (R)-2-Dimethylamino-3-methyl-pentanoic acid [(S)-1-[(6-amino-pyridin-3-ylmethyl)-carbamoyl]-2-(3-chloro-phenyl)-ethyl]-amide] | 8.15
CC(C)[C@H](C(=O)N[C@@H](Cc1cccc(Cl)c1)C(=O)NCc1ccc(N)nc1)N(C)C [Example 406, (R)—N-[(S)-1-[(6-Amino-pyridin-3-ylmethyl)-carbamoyl]-2-(3-chloro-phenyl)-ethyl]-2-dimethylamino-3-methyl-butyramide] | 8.33
CN(C)C(Cc1ccccc1)C(=O)NC(Cc1cccc(Cl)c1)C(=O)NCc1ccc(N)nc1 [Example 407, (R)—N-[(S)-1-[6-Amino-pyridin-3-ylmethyl)-carbamoyl]-2-(3-chloro-phenyl)-ethyl]-2-dimethylamino-3-phenyl-propionamide] | 7.77
CCN(C)C(C)C(=O)NC(Cc1cccc(Cl)c1)C(=O)NCc1ccc(N)nc1 [Example 408, (S)—N-[(S)-1-[6-Amino-pyridin-3-ylmethyl)-carbamoyl]-2-(3-chloro-phenyl)-ethyl]-2-(ethyl-methyl-amino)-propionamide] | 8.32
CC(C)N(C)C(C)C(=O)NC(Cc1cccc(Cl)c1)C(=O)NCc1ccc(N)nc1 [Example 409, (S)—N-[(S)-1-[6-Amino-pyridin-3-ylmethyl)-carbamoyl]-2-(3-chloro-phenyl)-ethyl]-2-(isopropyl-methyl-amino)-propionamide] | 9.20
CCN(CC)[C@@H](C)C(=O)N[C@@H](Cc1cccc(Cl)c1)C(=O)NCc1ccc(N)nc1 [Example 410, (S)—N-[(S)-1-[(6-Amino-pyridin-3-ylmethyl)-carbamoyl]-2-(3-chloro-phenyl)-ethyl]-2-diethylamino-propionamide] | 8.59
CC(C(=O)N[C@@H](Cc1cccc(Cl)c1)C(=O)NCc1ccc(N)nc1)N1CCCCC1 (stereo partly drawn) [Example 411, N-[(S)-1-[(6-Amino-pyridin-3-ylmethyl)-carbamoyl]-2-(3-chloro-phenyl)-ethyl]-2-piperidin-1-yl-propionamide] | 7.90
Nc1ccc(CNC(=O)[C@H](Cc2cccc(Cl)c2)NC(=O)CN2CCCCC2)cn1 [Example 412, (S)—N-(6-Amino-pyridin-3-ylmethyl)-3-(3-chloro-phenyl)-2-(2-piperidin-1-yl-acetylamino)-propionamide] | 8.03
CCN(C)[C@@H](C)C(=O)N[C@@H](Cc1cccc(C)c1)C(=O)NCc1ccc(N)nc1 [Example 413, (S)—N-{(S)-1-[(6-Amino-pyridin-3-ylmethyl)-carbamoyl]-2-m-tolyl-ethyl}-2-(ethyl-methyl-amino)-propionamide] | 8.10
Cc1cccc(C[C@H](NC(=O)[C@H](C)N(C)C(C)C)C(=O)NCc2ccc(N)nc2)c1 [Example 414, (S)—N-{(S)-1-[(6-Amino-pyridin-3-ylmethyl)-carbamoyl]-2-m-tolyl-ethyl}-2-(isopropyl-methyl-amino)-propionamide] | 9.11
CCN(CC)[C@@H](C)C(=O)N[C@@H](Cc1cccc(C)c1)C(=O)NCc1ccc(N)nc1 [Example 415, (S)—N-{(S)-1-[(6-Amino-pyridin-3-ylmethyl)-carbamoyl]-2-m-tolyl-ethyl}-2-diethylamino-propionamide] | 8.28
CCN(C)[C@@H](C)C(=O)N[C@@H](Cc1cccc(C(F)(F)F)c1)C(=O)NCc1ccc(N)nc1 [Example 416, (S)—N-[(S)-1-[(6-Amino-pyridin-3-ylmethyl)-carbamoyl]-2-(3-trifluoromethyl-phenyl)-ethyl]-2-(ethyl-methyl-amino)-propionamide] | 8.21

Compound | pIC50
CC(C)N(C)[C@@H](C)C(=O)N[C@@H](Cc1cccc(C(F)(F)F)c1)C(=O)NCc1ccc(N)nc1 [Example 417, (S)—N-[(S)-1-[(6-Amino-pyridin-3-ylmethyl)-carbamoyl]-2-(3-trifluoromethyl-phenyl)-ethyl]-2-(isopropyl-methyl-amino)-propionamide] | 9.08
CCN(CC)[C@@H](C)C(=O)N[C@@H](Cc1cccc(C(F)(F)F)c1)C(=O)NCc1ccc(N)nc1 [Example 418, (S)—N-[(S)-1-[(6-Amino-pyridin-3-ylmethyl)-carbamoyl]-2-(3-trifluoromethyl-phenyl)-ethyl]-2-diethylamino-propionamide] | 8.70
CC(C(=O)N[C@@H](Cc1cccc(C(F)(F)F)c1)C(=O)NCc1ccc(N)nc1)N1CCCCC1 (stereo partly drawn) [Example 419, N-[(S)-1-[(6-Amino-pyridin-3-ylmethyl)-carbamoyl]-2-(3-trifluoromethyl-phenyl)-ethyl]-2-piperidin-1-yl-propionamide] | 7.79
Nc1ccc(CNC(=O)[C@H](Cc2cccc(C(F)(F)F)c2)NC(=O)CN2CCCCC2)cn1 [Example 420, (S)—N-(6-Amino-pyridin-3-ylmethyl)-2-(2-piperidin-1-yl-acetylamino)-3-(3-trifluoromethyl-phenyl)-propionamide] | 6.93
C[C@H](C(=O)N[C@@H](Cc1ccc(C(F)(F)F)cc1)C(=O)NCc1ccc(N)nc1)N1CCCCC1 [Example 421, (R)—N-[(S)-1-[(6-Amino-pyridin-3-ylmethyl)-carbamoyl]-2-(4-trifluoromethyl-phenyl)-ethyl]-2-piperidin-1-yl-propionamide] | 7.17
C[C@@H](C(=O)N[C@@H](Cc1ccc(C(F)(F)F)cc1)C(=O)NCc1ccc(N)nc1)N1CCCCC1 [Example 422, (S)—N-[(S)-1-[(6-Amino-pyridin-3-ylmethyl)-carbamoyl]-2-(4-trifluoromethyl-phenyl)-ethyl]-2-piperidin-1-yl-propionamide] | 8.52
Nc1ccc(CNC(=O)[C@H](Cc2ccc(C(F)(F)F)cc2)NC(=O)CN2CCCCC2)cn1 [Example 423, (S)—N-(6-Amino-pyridin-3-ylmethyl)-2-(2-piperidin-1-yl-acetylamino)-3-(4-trifluoromethyl-phenyl)-propionamide] | 6.89
CCC(C)[C@H](C(=O)N[C@@H](Cc1cc(F)cc(F)c1)C(=O)NCc1ccc(N)nc1)N(C)C (stereo partly drawn) [Example 424, (R)-2-Dimethylamino-3-methyl-pentanoic acid [(S)-1-[(6-amino-pyridin-3-ylmethyl)-carbamoyl]-2-(3,5-difluoro-phenyl)-ethyl]-amide] | 7.55
CC(C(=O)N[C@@H](Cc1cc(F)cc(F)c1)C(=O)NCc1ccc(N)nc1)N1CCCCC1 (stereo partly drawn) [Example 425, N-[(S)-1-[(6-Amino-pyridin-3-ylmethyl)-carbamoyl]-2-(3,5-difluoro-phenyl)-ethyl]-2-piperidin-1-yl-propionamide] | 7.83
CC1CCCC(C)N1CC(=O)N[C@@H](Cc1ccc(Cl)cc1)C(=O)NCc1ccc(N)nc1 (stereo partly drawn) [Example 426, (S)—N-(6-Amino-pyridin-3-ylmethyl)-3-(4-chloro-phenyl)-2-[2-(2,6-dimethyl-piperidin-1-yl)-acetylamino]-propionamide] | 8.57
CC(C)C[C@H](NC(=O)[C@H](C)N(C)C(C)C)C(=O)NCc1ccc(N)nc1 [Example 427, (S)-2-[(S)-2-(Isopropyl-methyl-amino)-propionylamino]-4-methyl-pentanoic acid (6-amino-pyridin-3-ylmethyl)-amide] | 6.97
CCN(CC)CC(=O)N[C@@H](Cc1ccc(F)cc1)C(=O)NCc1ccc(N)nc1C [Example 428, (S)—N-(6-Amino-2-methyl-pyridin-3-ylmethyl)-2-(2-diethylamino-acetylamino)-3-(4-fluoro-phenyl)-propionamide] | 8.00
Cc1nc(N)ccc1CNC(=O)[C@H](Cc1ccc(F)c(F)c1)NC(=O)CN1C(C)CCCC1C (stereo partly drawn) [Example 429, (S)—N-(6-Amino-2-methyl-pyridin-3-ylmethyl)-3-(3,4-difluoro-phenyl)-2-[2-(2,6-dimethyl-piperidin-1-yl)-acetylamino]-propionamide] | 8.77
Cc1nc(N)ccc1CNC(=O)[C@H](Cc1ccc(F)c(F)c1)NC(=O)CN1CCCCC1 [Example 430, (S)—N-(6-Amino-2-methyl-pyridin-3-ylmethyl)-3-(3,4-difluoro-phenyl)-2-(2-piperidin-1-yl-acetylamino)-propionamide] | 7.22
Cc1nc(N)ccc1CNC(=O)[C@H](Cc1ccc(F)c(F)c1)NC(=O)[C@@H](C)N1CCCCC1 [Example 431, (R)—N-[(S)-1-[(6-Amino-2-methyl-pyridin-3-ylmethyl)-carbamoyl]-2-(3,4-difluoro-phenyl)-ethyl]-2-piperidin-1-yl-propionamide] | 7.30
Cc1nc(N)ccc1CNC(=O)[C@H](Cc1ccc(F)c(F)c1)NC(=O)[C@H](C)N1CCCCC1 [Example 432, (S)—N-[(S)-1-[(6-Amino-2-methyl-pyridin-3-ylmethyl)-carbamoyl]-2-(3,4-difluoro-phenyl)-ethyl]-2-piperidin-1-yl-propionamide] | 7.77
